Reference: patent US20040266732A1, “Therapeutic agents, methods, and treatments” (priority 2002, published 2004)

Columns and labels:
Experiment in all cases: NCI 60 cell-line test
Type in all cases: cell-based, human
ACHN = ACHN (Renal Cancer)
Experimental: (§1) Methodology: The NCI conducted a test of the MT103 drug against 60 human cell lines, with a minimum of five concentrations of MT103 at 10-fold dilutions. A 48 hour continuous drug exposure was used, and a sulforhodamine B (SRB) protein assay was used to estimate cell viability and growth. The human tumor cell lines of the cancer screening panel were grown in RPMI 1640 medium containing 5% fetal bovine serum and 2 mM L-glutamine. Cells were inoculated into 96 well microtiter plates in 100 μL at plating densities ranging from 5,000 to 40,000 cells/well depending on the doubling time of individual cell lines. After cell inoculation, the microtiter plates are incubated at 37° C., 5% CO2, 95% air, and 100% relative humidity for 24 h prior to addition of experimental drugs.
(§2) After 24 h, two plates of each cell line were fixed in situ with TCA, to represent a measurement of the cell population for each cell line at the time of drug addition (Tz). MT103 was solubilized in dimethyl sulfoxide at 400-fold the desired final maximum test concentration and stored frozen prior to use. At the time of drug addition, an aliquot of frozen concentrate was thawed and diluted to twice the desired final maximum test concentration with complete medium containing 50 μg/ml gentamicin. Additional four, 10-fold or ½ log serial dilutions were made to provide a total of five drug concentrations plus control. Aliquots of 100 μl of these different drug dilutions were added to the appropriate microtiter wells already containing 100 μl of medium, resulting in the required final drug concentrations.
(§3) Following drug addition, the plates were incubated for an additional 48 h at 37° C., 5% CO2, 95% air, and 100% relative humidity. For adherent cells, the assay was terminated by the addition of cold TCA. Cells were fixed in situ by the gentle addition of 50 μl of cold 50% (w/v) TCA (final concentration, 10% TCA) and incubated for 60 minutes at 4° C. The supernatant was discarded, and the plates were washed five times with tap water and air dried. Sulforhodamine B (SRB) solution (100 μl) at 0.4% (w/v) in 1% acetic acid was added to each well, and plates were incubated for 10 minutes at room temperature. After staining, unbound dye was removed by washing five times with 1% acetic acid and the plates were air-dried. Bound stain was subsequently solubilized with 10 mM trizma base, and the absorbance was read on an automated plate reader at a wavelength of 515 nm. For suspension cells, the methodology was the same except that the assay was terminated by fixing settled cells at the bottom of the wells by gently adding 50 μl of 80% TCA (final concentration, 16% TCA). Using the seven absorbance measurements (time zero, (Tz), control growth, (C), and test growth in the presence of drug at the five concentration levels (Ti)), the percentage growth was calculated at each of the drug concentrations levels. Percentage growth inhibition was calculated as:
(§4) [(Ti-Tz)/(C-Tz)]×100 for concentrations for which Ti>/=Tz
(§5) [(Ti-Tz)/Tz]×100 for concentrations for which Ti<Tz.
(§6) Three dose response parameters were calculated for each experimental agent. Growth inhibition of 50% (GI50) was calculated from [(Ti-Tz)/(C-Tz)]×100=50, which is the drug concentration resulting in a 50% reduction in the net protein increase (as measured by SRB staining) in control cells during the drug incubation. The drug concentration resulting in total growth inhibition (TGI) was calculated from Ti=Tz. The LC50 (concentration of drug resulting in a 50% reduction in the measured protein at the end of the drug treatment as compared to that at the beginning) indicating a net loss of cells following treatment was calculated from [(Ti-Tz)/Tz]×100=−50. Values were calculated for each of these three parameters if the level of activity is reached; however, if the effect was not reached or was exceeded, the value for that parameter was expressed as greater or less than the maximum or minimum concentration tested.

OVCAR-5 = OVCAR-5 (Ovarian Cancer)
Experimental: as §1, §2, §3, §4, §5, §6

A549/ATCC = A549/ATCC (Non-Small Cell Lung Cancer)
Experimental: as §1, §2, §3, §4, §5, §6

U251 = U251 (CNS Cancer)
Experimental: as §1, §2, §3, §4, §5, §6

UACC-257 = UACC-257 (Melanoma)
Experimental: as §1, §2, §3, §4, §5, §6

UACC-62 = UACC-62 (Melanoma)
Experimental: as §1, §2, §3, §4, §5, §6

MDA-N = MDA-N (Breast Cancer)
Experimental: as §1, §2, §3, §4, §5, §6

786-0 = 786-0 (Renal Cancer)
Experimental: as §1, §2, §3, §4, §5, §6

MDA-MB-231/ATCC = MDA-MB-231/ATCC (Breast Cancer)
Experimental: as §1, §2, §3, §4, §5, §6

DU-145 = DU-145 (Prostate Cancer)
Experimental: as §1, §2, §3, §4, §5, §6

HT29 = HT29 (Colon Cancer)
Experimental: as §1, §2, §3, §4, §5, §6

SNB-19 = SNB-19 (CNS Cancer)
Experimental: as §1, §2, §3, §4, §5, §6

A498 = A498 (Renal Cancer)
Experimental: as §1, §2, §3, §4, §5, §6

HS 578T = HS 578T (Breast Cancer)
Experimental: as §1, §2, §3, §4, §5, §6

SF-539 = SF-539 (CNS Cancer)
Experimental: as §1, §2, §3, §4, §5, §6

[1] = read-out: LC50 (the source's name)

## CC1(C)C2CC[C@@]1(CS(=O)(=O)N(C1CCCCC1)C1CCCCC1)C(O)C2 (stereo partly drawn) [MT103]
ACHN
  TGI: >1.00E−04
ACHN; read-out: G150
  IC50: 23.8 µM
ACHN; [1]
  CC50: > 100 µM
OVCAR-5
  TGI: 5.70E−05
OVCAR-5; read-out: G150
  IC50: 23.7 µM
OVCAR-5; [1]
  CC50: > 100 µM
A549/ATCC
  TGI: >1.00E−04
A549/ATCC; read-out: G150
  IC50: 28.3 µM
A549/ATCC; [1]
  CC50: > 100 µM
U251
  TGI: >1.00E−04
U251; read-out: G150
  IC50: 28.7 µM
U251; [1]
  CC50: > 100 µM
UACC-257
  TGI: 9.53E−05
UACC-257; read-out: G150
  IC50: 28.5 µM
UACC-257; [1]
  CC50: > 100 µM
UACC-62
  TGI: 4.65E−05
UACC-62; read-out: G150
  IC50: 18.8 µM
UACC-62; [1]
  CC50: > 100 µM
MDA-N
  TGI: >1.00E−04
MDA-N; read-out: G150
  IC50: 27.1 µM
MDA-N; [1]
  CC50: > 100 µM
786-0
  TGI: >1.00E−04
786-0; read-out: G150
  IC50: 46.3 µM
786-0; [1]
  CC50: > 100 µM
MDA-MB-231/ATCC
  TGI: 4.71E−05
MDA-MB-231/ATCC; read-out: G150
  IC50: 16.9 µM
MDA-MB-231/ATCC; [1]
  CC50: > 100 µM
DU-145
  TGI: >1.00E−04
DU-145; read-out: G150
  IC50: 30.5 µM
DU-145; [1]
  CC50: > 100 µM
HT29
  TGI: >1.00E−04
HT29; read-out: G150
  IC50: 23.5 µM
HT29; [1]
  CC50: > 100 µM
SNB-19
  TGI: >1.00E−04
SNB-19; read-out: G150
  IC50: 68 µM
SNB-19; [1]
  CC50: > 100 µM
A498
  TGI: 9.07E−05
A498; read-out: G150
  IC50: 30.4 µM
A498; [1]
  CC50: > 100 µM
HS 578T
  TGI: >1.00E−04
HS 578T; read-out: G150
  IC50: 29 µM
HS 578T; [1]
  CC50: > 100 µM
SF-539
  TGI: >1.00E−04
SF-539; read-out: G150
  IC50: 54.6 µM
SF-539; [1]
  CC50: > 100 µM
